Reference: article PMC12207590, “Substrate Specificity of the Organic Cation Transporters MATE1 and MATE2K and Functional Overlap with OCT1 and OCT2” (Journal of Medicinal Chemistry, 2025)
Where two headings read alike, the source gives them in different places.

How the values were obtained:
MATE2K [1] = target: T1, MATE2K (Homo sapiens, UniProt Q86VL8); assay: Concentration-dependent uptake (Michaelis-Menten) via MATE2K in HEK293 cells; details: for Km: read-out: MATE2K KM
[2] = cited from earlier work
MATE1 [3] = target: T2, MATE1 (Homo sapiens, UniProt Q96FL8); assay: Concentration-dependent uptake (Michaelis-Menten) via MATE1 in HEK293 cells; details: for Km: read-out: MATE1 KM
T2 sequence (Q96FL8 1-570): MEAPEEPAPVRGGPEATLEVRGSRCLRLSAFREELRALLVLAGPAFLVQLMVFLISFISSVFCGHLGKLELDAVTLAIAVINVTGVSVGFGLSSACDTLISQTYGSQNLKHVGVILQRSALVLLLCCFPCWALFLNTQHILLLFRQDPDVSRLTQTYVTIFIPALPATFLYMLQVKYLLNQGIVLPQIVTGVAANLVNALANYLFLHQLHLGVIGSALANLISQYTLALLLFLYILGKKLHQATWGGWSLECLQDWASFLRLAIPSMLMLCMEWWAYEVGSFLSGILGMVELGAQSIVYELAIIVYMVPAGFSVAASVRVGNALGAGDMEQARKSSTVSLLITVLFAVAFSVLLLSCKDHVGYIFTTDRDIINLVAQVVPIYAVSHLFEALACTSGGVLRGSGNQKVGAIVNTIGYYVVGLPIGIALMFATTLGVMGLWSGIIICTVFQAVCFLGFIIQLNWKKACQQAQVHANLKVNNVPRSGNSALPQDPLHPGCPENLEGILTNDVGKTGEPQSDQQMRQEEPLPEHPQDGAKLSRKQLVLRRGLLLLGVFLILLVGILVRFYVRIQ

hCMEC [4] = assay: TS MDAI hCMEC (Table S2); format: cell-based, human; set-up: scale not given here; details: Table S2
hCMEC [5] = assay: TS DPH hCMEC (Table S2); format: cell-based, human; set-up: scale not given here; details: Table S2
MATE1 [6] = target: T2, MATE1; assay: Uptake ratio in MATE1-overexpressing HEK293 cells vs empty vector (2.5 μM, 1 min, HPLC-MS/MS); format: cell-based; set-up: key to MATE1 substrate*: 1 = substrate; 0 = no substrate; details: for MATE1 (uptake ratio): mean ratio of uptake in MATE1-overexpressing HEK293 cells vs empty vector
MATE2K [7] = target: T1, MATE2K; assay: Uptake ratio in MATE2K-overexpressing HEK293 cells vs empty vector (2.5 μM, 1 min, HPLC-MS/MS); format: cell-based; set-up: key to MATE2 substrate*: 1 = substrate; 0 = no substrate; details: for MATE2K ratio: fold uptake over empty vector; for MATE2 (uptake ratio): mean ratio of uptake in MATE2K-overexpressing HEK293 cells vs empty vector
[8] = system: MATE1, MATE2K, OCT1, OCT2; assay: Substrate specificity and overlap among the four transporters (ratio cutoff 2); format: cell-based, human; details: transport ratio cutoff of 2
OCT1 = target: T3, OCT1 (Homo sapiens, UniProt O15245); assay: Uptake in OCT1-overexpressing HEK293 cells (substrate yes/no); format: cell-based; set-up: key: 1 = substrate; 0 = no substrate; details: Table S4
T3 sequence (O15245 1-554): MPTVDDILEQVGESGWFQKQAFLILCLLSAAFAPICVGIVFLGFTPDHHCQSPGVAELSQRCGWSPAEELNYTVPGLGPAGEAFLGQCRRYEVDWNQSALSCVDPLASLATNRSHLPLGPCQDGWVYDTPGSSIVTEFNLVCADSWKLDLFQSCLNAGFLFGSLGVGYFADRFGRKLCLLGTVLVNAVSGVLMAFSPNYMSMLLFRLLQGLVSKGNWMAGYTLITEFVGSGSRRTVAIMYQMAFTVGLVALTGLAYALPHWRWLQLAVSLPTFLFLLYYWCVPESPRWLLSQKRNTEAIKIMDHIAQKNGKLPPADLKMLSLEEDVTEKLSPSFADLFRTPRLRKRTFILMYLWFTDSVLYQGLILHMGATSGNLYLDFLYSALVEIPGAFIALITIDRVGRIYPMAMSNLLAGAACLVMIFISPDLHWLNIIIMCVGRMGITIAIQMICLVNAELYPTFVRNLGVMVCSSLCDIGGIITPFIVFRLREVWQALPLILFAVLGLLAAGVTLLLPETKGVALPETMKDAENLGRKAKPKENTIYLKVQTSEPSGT
Procedure: The cell lines were generated using the recombinant site-specific Flp-In^TM system as previously described. , All cell lines used in the transport experiments were cultured at 37 °C and 5% CO2 with Dulbecco’s Modified Eagle’s Medium (DMEM) supplemented with 10% (v/v) FBS and the antibiotics penicillin (100 U/mL) and streptomycin (100 μg/mL).

[9] = fold uptake over empty vector, 2.5 μM, 1 min
[10] = uptake ratio MATE1-overexpressing vs empty-vector HEK293 cells, 2.5 μM, 1 min, mean
[11] = uptake ratio MATE2K-overexpressing vs empty-vector HEK293 cells, 2.5 μM, 1 min, mean

T1 sequence (Q86VL8 1-566 isoform Q86VL8-3): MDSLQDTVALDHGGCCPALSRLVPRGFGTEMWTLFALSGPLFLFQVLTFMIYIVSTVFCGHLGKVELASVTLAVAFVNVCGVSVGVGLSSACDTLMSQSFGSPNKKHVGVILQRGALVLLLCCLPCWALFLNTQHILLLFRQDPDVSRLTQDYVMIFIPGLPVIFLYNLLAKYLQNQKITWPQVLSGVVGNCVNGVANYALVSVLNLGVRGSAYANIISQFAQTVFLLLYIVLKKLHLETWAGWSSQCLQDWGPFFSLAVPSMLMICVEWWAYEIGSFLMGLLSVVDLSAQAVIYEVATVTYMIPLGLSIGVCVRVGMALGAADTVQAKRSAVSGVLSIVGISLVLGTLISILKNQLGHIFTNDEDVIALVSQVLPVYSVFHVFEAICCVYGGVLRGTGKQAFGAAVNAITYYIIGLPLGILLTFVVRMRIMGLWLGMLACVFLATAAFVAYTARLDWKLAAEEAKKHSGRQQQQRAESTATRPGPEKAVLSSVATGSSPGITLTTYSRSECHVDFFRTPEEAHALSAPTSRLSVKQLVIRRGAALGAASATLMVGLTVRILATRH

Km (MATE2K [1]; HEK293, 1 min, net uptake) [µM] | Km (MATE1 [3]; HEK293, 1 min, net uptake) [µM] | MATE2K Vmax (MATE2K [1]; HEK293, 1 min, net uptake) | MATE1 ratio (MATE1 [6]; [9]) | MATE2K ratio (MATE2K [7]; 2.5 μM, 1 min) | MATE1 Vmax (MATE1 [3]; HEK293, 1 min, net uptake) | MATE1 (MATE1 [6]; [10]) | MATE2 (MATE2K [7]; [11]) | Compound | TS MDAI hCMEC (hCMEC [4]) | TS DPH hCMEC (hCMEC [5]) | eliminated unchanged via the kidneys ([2]; human) | also measured
22.8 | 16 |  |  |  |  |  |  | CCN1CCCC1CNC(=O)c1cc(S(N)(=O)=O)ccc1OC (centres unmarked) [Sulpiride] |  |  |  | MATE2K Vmax (MATE2K [1]): 1025 pmol × mg protein^–1 × min^–1; eliminated unchanged via the kidneys ([2]; in vivo): more than 70%; MATE1 Vmax (MATE1 [3]): 851 pmol × mg protein^–1 × min^–1
 | 167 | linear | 1.18 | 2.16 | 194 pmol × mg protein^–1 × min^–1 | 1.18 | 2.16 | C#CCN[C@@H]1CCc2ccccc21 [Rasagiline] | 0.51 | 0.54 |  | Substrate specificity among MATE1, MATE2K, OCT1, OCT2 [8]: specific for only OCT2 and MATE2K
1550 | 1690 | 989.5 pmol × mg protein^–1 × min^–1 | 2.68 | 1.36 | 5442 pmol × mg protein^–1 × min^–1 | 2.68 | 1.36 | Cc1ncc(CO)c(CN)c1O [Pyridoxamine] |  |  |  | Substrate specificity among MATE1, MATE2K, OCT1, OCT2 [8]: MATE1 only
 |  |  |  |  |  | 0.51 | 1.34 | CN(C)CCOC1=Cc2ccccc2Sc2ccc(Cl)cc21 [Zotepin] |  |  |  | OCT1 substrate* (OCT1): 0; MATE1 substrate* (MATE1 [6]; Table S4): 0; MATE2 substrate* (MATE2K [7]; Table S4): 0
 |  |  | 19.70 | 1.62 |  | 19.7 | 1.62 | CC(C)NCC(O)c1ccc(NS(C)(=O)=O)cc1 (centres unmarked) [Sotalol] |  |  | more than 70% | MATE1 ratio (MATE1 [6]; fold uptake over empty vector, 2.5 μM, 1 min, listed as sotalol): above 2
 |  |  | 4.17 | 2.77 |  | 4.17 | 2.77 | N[C@@H](CC(=O)N1CCn2c(nnc2C(F)(F)F)C1)Cc1cc(F)c(F)cc1F [Sitagliptin] |  |  | more than 70% | MATE1 ratio (MATE1 [6]; fold uptake over empty vector, 2.5 μM, 1 min, listed as sitagliptin): above 2
17.3 | 17.2 | 109.2 pmol × mg protein^–1 × min^–1 |  |  | 599 pmol × mg protein^–1 × min^–1 | 33.42 | 10.63 | Cc1ncc(C[n+]2csc(CCO)c2C)c(N)n1 [Thiamine] |  |  |  | MATE1 ratio in this study (MATE1 [6]; Table S1, 2.5 μM, 1 min): 33.42; MATE2K ratio in this study (MATE2K [7]; Table S1, 2.5 μM, 1 min): 10.63; Substrate specificity among MATE1, MATE2K, OCT1, OCT2 [8]: All four transporters
 | 1560 | linear | above 2 |  | 10,171 pmol × mg protein^–1 × min^–1 | 12.98 | 1.22 | Nc1ccn([C@H]2CC[C@@H](CO)O2)c(=O)n1 [Zalcitabine] |  |  | more than 70% | MATE1 ratio in this study (MATE1 [6]; Table S1, 2.5 μM, 1 min): 12.98; MATE2K ratio in this study (MATE2K [7]; Table S1, 2.5 μM, 1 min): 1.22
 |  |  | 18.91 | 8.62 |  | 18.91 | 8.62 | CNC(=C[N+](=O)[O-])NCCSCc1ccc(CN(C)C)o1 [Ranitidine] | 1.24 | 1.26 | more than 70% | MATE1 ratio (MATE1 [6]; fold uptake over empty vector, 2.5 μM, 1 min, listed as ranitidine): above 2

Second part, the molecule before the results:

Compound | Km (MATE2K [1]; HEK293, 1 min, net uptake) [µM] | Km (MATE1 [3]; HEK293, 1 min, net uptake) [µM] | MATE2K Vmax (MATE2K [1]; HEK293, 1 min, net uptake) | MATE1 ratio (MATE1 [6]; [9]) | MATE2K ratio (MATE2K [7]; 2.5 μM, 1 min) | MATE1 Vmax (MATE1 [3]; HEK293, 1 min, net uptake) | MATE1 (MATE1 [6]; [10]) | MATE2 (MATE2K [7]; [11]) | TS MDAI hCMEC (hCMEC [4]) | TS DPH hCMEC (hCMEC [5]) | eliminated unchanged via the kidneys ([2]; human) | also measured
CN[C@@H]1CCc2[nH]c3ccc(C(N)=O)cc3c2C1 [Frovatriptan] | 11.2 | 70.4 | 869 pmol × mg protein^–1 × min^–1 | 34.35 | 31.50 | 4568 pmol × mg protein^–1 × min^–1 |  |  | 0.88 | 0.83 |  | Substrate specificity among MATE1, MATE2K, OCT1, OCT2 [8]: All four transporters
C[N@+]1(CC2CC2)CC[C@]23c4c5ccc(O)c4O[C@H]2C(=O)CC[C@@]3(O)[C@H]1C5 [Methylnaltrexone] | 86.8 | 17.9 | 41.6 pmol × mg protein^–1 × min^–1 |  |  | 55.8 pmol × mg protein^–1 × min^–1 |  |  | 0.84 | 1.11 |  | Substrate specificity among MATE1, MATE2K, OCT1, OCT2 [8]: All four transporters
NC(N)=Nc1nc(CSCCC(N)=NS(N)(=O)=O)cs1 [Famotidine] |  |  |  |  |  |  |  |  |  |  | more than 70% | 
CCN1CCCC1CNC(=O)c1cc(S(=O)(=O)CC)c(N)cc1OC (centres unmarked) [Amisulpride] | 39.9 | 10.6 | 710 pmol × mg protein^–1 × min^–1 | 11.04 | 11.15 | 238 pmol × mg protein^–1 × min^–1 |  |  | 0.91 | 0.89 | more than 70% | MATE1 ratio (MATE1 [6]; fold uptake over empty vector, 2.5 μM, 1 min, listed as amisulpride): above 2; MATE1 (uptake ratio) (MATE1 [6]; 2.5 μM, 1 min): 11.04; MATE2 (uptake ratio) (MATE2K [7]; 2.5 μM, 1 min): 11.15
O=C(O[C@H]1C[C@H]2CC[C@@H](C1)[N+]21CCCC1)C(O)(c1ccccc1)c1ccccc1 [Trospium] |  |  |  |  |  |  |  |  |  |  | more than 70% | MATE1 (MATE1 [6]): 21.28; MATE1 ratio (MATE1 [6]): above 2; MATE1 ratio in this study (MATE1 [6]): 21.28; MATE2 (MATE2K [7]): 5.18; MATE2K ratio in this study (MATE2K [7]): 5.18
Nc1ccncc1N [Amifampridine] |  |  |  | 17.06 | 7.01 |  |  |  |  |  | more than 70% | MATE1 ratio (MATE1 [6]; fold uptake over empty vector, 2.5 μM, 1 min, listed as amifampridine): above 2; MATE1 (uptake ratio) (MATE1 [6]; 2.5 μM, 1 min): 17.06; MATE2 (uptake ratio) (MATE2K [7]; 2.5 μM, 1 min): 7.01
CC(C)NCC(O)COc1ccc(COCCOC(C)C)cc1 (centres unmarked) [Bisoprolol] |  |  |  |  |  |  |  |  | 0.35 | 0.32 | 50% | 
CC[N+](C)(C)c1cccc(O)c1 [Edrophonium] |  |  |  | 30.33 | 10.98 |  |  |  |  |  |  | eliminated unchanged via the kidneys ([2]; in vivo): more than 70%; MATE1 ratio (MATE1 [6]; fold uptake over empty vector, 2.5 μM, 1 min, listed as edrophonium): above 2
C=CCN1CCCC1CNC(=O)c1cc2nn[nH]c2cc1OC (centres unmarked) [Alizapride] |  |  |  | 3.68 | 2.64 |  |  |  |  |  | more than 70% | MATE1 ratio (MATE1 [6]; fold uptake over empty vector, 2.5 μM, 1 min, listed as alizapride): above 2; MATE1 (uptake ratio) (MATE1 [6]; 2.5 μM, 1 min): 3.68; MATE2 (uptake ratio) (MATE2K [7]; 2.5 μM, 1 min): 2.64
C[C@H]1N=C(N(C)C)N=C(N)N1 [Imeglimin] | 81.6 | 58 | 2814 pmol × mg protein^–1 × min^–1 | 18.76 | 4.59 | 6242 pmol × mg protein^–1 × min^–1 |  |  |  |  | more than 70% | MATE1 ratio in this study (MATE1 [6]; Table S1, 2.5 μM, 1 min): 18.76; MATE1 ratio (MATE1 [6]; fold uptake over empty vector, 2.5 μM, 1 min, listed as imeglimin): above 2; MATE2K ratio in this study (MATE2K [7]; Table S1, 2.5 μM, 1 min): 4.59
